Test results reported in US7932270B2 (Cytokinetics, Inc., priority 2006, dated 2011).

Molecular target: T1, chicken gizzard smooth muscle myosin subfragment-1 chemically crosslinked to cardiac or skeletal actin (Gallus gallus, UniProt P10587)
T1 construct: chicken gizzard smooth muscle myosin subfragment-1; from tissue; host or cells: chicken gizzard
Assay: Smooth muscle myosin ATPase dose response assay (pyruvate kinase/horseradish peroxidase/pyruvate oxidase-coupled, amplex red fluorescence)
Type: biochemical
Conditions: read-out: IC50 Arithmetic Mean
Procedure, shortened: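 Chicken gizzard myosin S1 crosslinked to cardiac or skeletal actin, titrated to a set hydrolysis rate; 0.15 mM ATP, 12 mM PIPES pH 7.00, 100 mM KCl, 2 mM MgCl2. Pyruvate kinase/pyruvate oxidase/HRP coupling with amplex red fluorescence; IC50 from 4-parameter fit.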

T1 sequence (P02607 2-151): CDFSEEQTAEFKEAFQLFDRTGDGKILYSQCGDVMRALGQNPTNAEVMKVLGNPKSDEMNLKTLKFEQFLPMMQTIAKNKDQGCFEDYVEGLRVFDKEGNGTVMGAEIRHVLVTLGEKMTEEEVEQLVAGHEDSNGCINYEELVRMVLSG
T1 sequence (P10587 84-789): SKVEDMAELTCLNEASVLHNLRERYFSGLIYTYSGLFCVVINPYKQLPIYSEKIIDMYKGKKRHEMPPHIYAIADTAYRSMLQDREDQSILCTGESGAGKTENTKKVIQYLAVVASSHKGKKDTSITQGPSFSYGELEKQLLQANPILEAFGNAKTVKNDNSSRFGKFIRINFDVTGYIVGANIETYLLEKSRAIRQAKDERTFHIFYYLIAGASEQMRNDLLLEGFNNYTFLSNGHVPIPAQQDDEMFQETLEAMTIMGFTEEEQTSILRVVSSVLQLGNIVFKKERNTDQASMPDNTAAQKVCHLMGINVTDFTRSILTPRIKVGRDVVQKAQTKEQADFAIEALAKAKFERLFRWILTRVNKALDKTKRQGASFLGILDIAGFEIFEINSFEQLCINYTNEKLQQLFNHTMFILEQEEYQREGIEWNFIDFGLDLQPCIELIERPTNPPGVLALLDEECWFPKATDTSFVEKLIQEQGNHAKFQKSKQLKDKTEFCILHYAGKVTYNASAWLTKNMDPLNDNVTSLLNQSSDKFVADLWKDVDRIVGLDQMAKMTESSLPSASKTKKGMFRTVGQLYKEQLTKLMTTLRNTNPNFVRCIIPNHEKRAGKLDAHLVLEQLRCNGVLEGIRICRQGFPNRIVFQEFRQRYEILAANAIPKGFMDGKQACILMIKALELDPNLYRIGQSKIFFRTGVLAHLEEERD

SMILES: C=CCNC(=O)c1ccc(-c2ccccc2)nc1NCCc1ccccc1 [{6-phenyl-2-[(2-phenylethyl)amino](3-pyridyl)}-N-prop-2-enylcarboxamide]
- IC50: 1060 nM

SMILES: N#Cc1ccc(CNC(=O)c2ccc(-c3ccccc3)nc2NCCc2cccc(F)c2)cn1 [N-[(6-cyano(3-pyridyl))methyl](2-{[2-(3-fluorophenyl)ethyl]amino}-6-phenyl(3-pyridyl))carboxamide]
- IC50: 1240 nM

SMILES: O=C(NCc1cccnc1)c1ccc(-c2ccccc2F)nc1NCCc1cccc(F)c1 [(6-(2-fluorophenyl)-2-{[2-(3-fluorophenyl)ethyl]amino}(3-pyridyl))-N-(3-pyridylmethyl)carboxamide]
- IC50: 139 nM

SMILES: Cn1cc(-c2nc(NCCc3cccc(F)c3)c(C(=O)NC[C@H]3CCCN3C(=O)OC(C)(C)C)cc2Cl)cn1 [tert-butyl (2R)-2-{[(5-chloro-2-{[2-(3-fluorophenyl)ethyl]amino}-6-(1-methylpyrazol-4-yl)(3-pyridyl))carbonylamino]methyl}pyrrolidinecarboxylate]
- IC50: 1600 nM

SMILES: CN1CCN(C(=O)CCCN)[C@@H](CNC(=O)c2ccc(-c3ccccc3C#N)nc2NCCc2cccc(F)c2)C1 [N-{[(2S)-1-(4-aminobutanoyl)-4-methylpiperazin-2-yl]methyl}(6-(2-cyanophenyl)-2-{[2-(3-fluorophenyl)ethyl]amino}(3-pyridyl))carboxamide]
- IC50: 2320 nM

SMILES: COC(=O)[C@@H](CO)NC(=O)c1ccc(-c2ccccc2C#N)nc1NCCc1cccc(F)c1 [methyl (2R)-2-[(6-(2-cyanophenyl)-2-{[2-(3-fluorophenyl)ethyl]amino}(3-pyridyl))carbonylamino]-3-hydroxypropanoate]
- IC50: 513 nM

SMILES: CNC(=O)[C@@H](N)CCNC(=O)c1ccc(-c2ccccc2C#N)nc1NCCc1cccc(F)c1 [(2S)-2-amino-4-[(6-(2-cyanophenyl)-2-{[2-(3-fluorophenyl)ethyl]amino}(3-pyridyl))carbonylamino]-N-methylbutanamide]
- IC50: 5020 nM

SMILES: Cn1cc(-c2nc(NCCc3cccc(F)c3)c(C(=O)NC[C@H]3CCCN3C(=O)C(O)CO)cc2F)cn1 (stereo partly drawn) [N-{[(2R)-1-(2,3-dihydroxypropanoyl)pyrrolidin-2-yl]methyl}(5-fluoro-2-{[2-(3-fluorophenyl)ethyl]amino}-6-(1-methylpyrazol-4-yl)(3-pyridyl))carboxamide]
- IC50: 143 nM

SMILES: O=C(NCc1cccnc1)c1ccc(-c2ccccc2)nc1NCC(O)c1ccccc1 (stereo not drawn) [{2-[(2-hydroxy-2-phenylethyl)amino]-6-phenyl(3-pyridyl)}-N-(3-pyridylmethyl)carboxamide]
- IC50: 1940 nM

SMILES: N#Cc1ccc(-c2ccc(C(=O)NCc3cccnc3)c(NCCc3ccccn3)n2)cc1 [{6-(4-cyanophenyl)-2-[(2-(2-pyridyl)ethyl)amino](3-pyridyl)}-N-(3-pyridylmethyl)carboxamide]
- IC50: 1930 nM

SMILES: N#Cc1ccccc1-c1ccc(C(=O)NCc2cccc(C(N)=O)n2)c(NCCc2cccc(F)c2)n1 [6-{[(6-(2-cyanophenyl)-2-{[2-(3-fluorophenyl)ethyl]amino}-3-pyridyl)carbonylamino]methyl}pyridine-2-carboxamide]
- IC50: 60 nM

SMILES: N#Cc1ccccc1-c1ccc(C(=O)NCc2ccccn2)c(NCCc2cccc(F)c2)n1 [(6-(2-cyanophenyl)-2-{[2-(3-fluorophenyl)ethyl]amino}(3-pyridyl))-N-(2-pyridylmethyl)carboxamide]
- IC50: 29 nM

SMILES: NCCCN1C(=O)CC[C@@H]1CNC(=O)c1ccc(-c2ccccc2C(N)=O)nc1NCCc1cccc(F)c1 [2-[5-(N-{[(2R)-1-(3-aminopropyl)-5-oxopyrrolidin-2-yl]methyl}carbamoyl)-6-{[2-(3-fluorophenyl)ethyl]amino}-2-pyridyl]benzamide]
- IC50: 13200 nM

SMILES: CNC(=O)[C@H](CO)NC(=O)c1ccc(-c2ccccc2C#N)nc1NCCc1cccc(F)c1 [(2S)-2-[(6-(2-cyanophenyl)-2-{[2-(3-fluorophenyl)ethyl]amino}(3-pyridyl))carbonylamino]-3-hydroxy-N-methylpropanamide]
- IC50: 1120 nM

SMILES: CC(C)(C)OC(=O)NCCCN1C(=O)CC[C@@H]1CNC(=O)c1cc(F)c(-c2ccccc2C#N)nc1NCCc1cccc(F)c1 [N-[((2R)-1-{3-[(tert-butoxy)carbonylamino]propyl}-5-oxopyrrolidin-2-yl)methyl](6-(2-cyanophenyl)-5-fluoro-2-{[2-(3-fluorophenyl)ethyl]amino}(3-pyridyl))carboxamide]
- IC50: 845 nM

SMILES: O=C(NCCc1ccccn1)c1ccc(-c2ccccc2)nc1NCCc1ccccc1 [{6-phenyl-2-[(2-phenylethyl)amino](3-pyridyl)}-N-(2-(2-pyridyl)ethyl)carboxamide]
- IC50: 5250 nM

SMILES: N#Cc1ccccc1-c1ccc(C(=O)NC[C@H]2CCCCN2C(=O)[C@H](N)CCN)c(NCCc2cccc(F)c2)n1 [N-{[(2R)-1-((2R)-2,4-diaminobutanoyl)(2-piperidyl)]methyl}(6-(2-cyanophenyl)-2-{[2-(3-fluorophenyl)ethyl]amino}(3-pyridyl))carboxamide]
- IC50: 399 nM

SMILES: N#Cc1ccccc1-c1nc(NCCc2cccc(F)c2)c(C(=O)NC[C@H]2CCCN2C(=O)CN)cc1F [N-{[(2R)-1-(2-aminoacetyl)pyrrolidin-2-yl]methyl}(6-(2-cyanophenyl)-5-fluoro-2-{[2-(3-fluorophenyl)ethyl]amino}(3-pyridyl))carboxamide]
- IC50: 40 nM

SMILES: COC[C@H](N)C(=O)N1CCC[C@@H]1CNC(=O)c1ccc(-c2ccccc2C#N)nc1NCCc1cccc(F)c1 [N-{[(2R)-1-((2S)-2-amino-3-methoxypropanoyl)pyrrolidin-2-yl]methyl}(6-(2-cyanophenyl)-2-{[2-(3-fluorophenyl)ethyl]amino}(3-pyridyl))carboxamide]
- IC50: 193 nM

SMILES: O=C(NCc1ccccn1)c1cc(F)c(-c2cn[nH]c2)nc1NCCc1cccc(F)c1 [(5-fluoro-2-{[2-(3-fluorophenyl)ethyl]amino}-6-pyrazol-4-yl(3-pyridyl))-N-(2-pyridylmethyl)carboxamide]
- IC50: 24 nM

SMILES: O=C(NCc1cccnc1)c1ccc(-c2ccc(F)cc2Cl)nc1NCCc1cccc(F)c1 [(6-(2-chloro-4-fluorophenyl)-2-{[2-(3-fluorophenyl)ethyl]amino}(3-pyridyl))-N-(3-pyridylmethyl)carboxamide]
- IC50: 1380 nM

SMILES: Cn1cc(-c2ccc(C(=O)NC[C@H]3CCC(=O)N3CCCN)c(NCCc3cccc(F)c3)n2)cn1 [N-{[(2R)-1-(3-aminopropyl)-5-oxopyrrolidin-2-yl]methyl}(2-{[2-(3-fluorophenyl)ethyl]amino}-6-(1-methylpyrazol-4-yl)(3-pyridyl))carboxamide]
- IC50: 290 nM

SMILES: COC(=O)CNC(=O)c1ccc(-c2ccccc2)nc1NCCc1ccccc1 [methyl 2-({6-phenyl-2-[(2-phenylethyl)amino]-3-pyridyl}carbonylamino)acetate]
- IC50: 1340 nM

SMILES: CC(C)(C)OC(=O)NCCC(=O)N1CCC[C@@H]1CNC(=O)c1cc(F)c(-c2ccccc2C#N)nc1NCCc1cccc(F)c1 [N-[((2R)-1-{3-[(tert-butoxy)carbonylamino]propanoyl}pyrrolidin-2-yl)methyl](6-(2-cyanophenyl)-5-fluoro-2-{[2-(3-fluorophenyl)ethyl]amino}(3-pyridyl))carboxamide]
- IC50: 2770 nM

SMILES: N#Cc1ccccc1-c1ccc(C(=O)NCCN2C(=O)CC[C@H]2CN)c(NCCc2cccc(F)c2)n1 [N-{2-[(5S)-5-(aminomethyl)-2-oxopyrrolidinyl]ethyl}(6-(2-cyanophenyl)-2-{[2-(3-fluorophenyl)ethyl]amino}(3-pyridyl))carboxamide]
- IC50: 17900 nM

SMILES: N#Cc1ccccc1-c1ccc(C(=O)NCc2ccc(N3CCNCC3)nc2)c(NCCc2cccc(F)c2)n1 [(6-(2-cyanophenyl)-2-{[2-(3-fluorophenyl)ethyl]amino}(3-pyridyl))-N-[(6-piperazinyl(3-pyridyl))methyl]carboxamide]
- IC50: 1750 nM

SMILES: N#Cc1ccccc1-c1ccc(C(=O)NC[C@H]2CCC(=O)N2CCCCCN2C(=O)c3ccccc3C2=O)c(NCCc2cccc(F)c2)n1 [N-({(2R)-1-[5-(1,3-dioxobenzo[c]azolin-2-yl)pentyl]-5-oxopyrrolidin-2-yl}methyl)(6-(2-cyanophenyl)-2-{[2-(3-fluorophenyl)ethyl]amino}(3-pyridyl))carboxamide]
- IC50: 266 nM

SMILES: CC(=O)c1ccc(-c2ccc(C(=O)NCc3cccnc3)c(NCCc3cccc(F)c3)n2)s1 [(6-(5-acetyl(2-thienyl))-2-{[2-(3-fluorophenyl)ethyl]amino}(3-pyridyl))-N-(3-pyridylmethyl)carboxamide]
- IC50: 178 nM

SMILES: N#Cc1ccccc1-c1ccc(C(=O)NC[C@H]2CNCCN2C(=O)CCN)c(NCCc2cccc(F)c2)n1 [N-{[(2R)-1-(3-aminopropanoyl)piperazin-2-yl]methyl}(6-(2-cyanophenyl)-2-{[2-(3-fluorophenyl)ethyl]amino}(3-pyridyl))carboxamide]
- IC50: 4890 nM

SMILES: Cn1cc(-c2nc(NCCc3cccc(F)c3)c(C(=O)NC[C@H]3CCCN3C(=O)CCCNC(=O)OC(C)(C)C)cc2C#N)cn1 [N-[((2R)-1-{4-[(tert-butoxy)carbonylamino]butanoyl}pyrrolidin-2-yl)methyl](5-cyano-2-{[2-(3-fluorophenyl)ethyl]amino}-6-(1-methylpyrazol-4-yl)(3-pyridyl))carboxamide]
- IC50: 1610 nM

SMILES: Cc1ccc(-c2ccc(C(=O)NCc3cccnc3)c(NCCc3cccc(F)c3)n2)c(Cl)c1 [(6-(2-chloro-4-methylphenyl)-2-{[2-(3-fluorophenyl)ethyl]amino}(3-pyridyl))-N-(3-pyridylmethyl)carboxamide]
- IC50: 2080 nM

SMILES: C=CCNC(=O)c1ccc(-c2ccccc2)nc1NCCc1cccc(C)c1 [(2-{[2-(3-methylphenyl)ethyl]amino}-6-phenyl(3-pyridyl))-N-prop-2-enylcarboxamide]
- IC50: 3740 nM

SMILES: N#Cc1ccccc1-c1ccc(C(=O)NC[C@@H]2CCCN(C(=O)CCN)C2)c(NCCc2cccc(F)c2)n1 [N-{[(3S)-1-(3-aminopropanoyl)(3-piperidyl)]methyl}(6-(2-cyanophenyl)-2-{[2-(3-fluorophenyl)ethyl]amino}(3-pyridyl))carboxamide]
- IC50: 1260 nM
